In data set [1] the test system is xylazine/ketamine induced α2-adrenergic receptor-mediated anesthesia. Particulars: in vivo, 3 mg/kg. The source says: Since emesis is a typical side-effect of PDE4 inhibitors the emetic potential of roflumilast and rolipram was investigated in parallel using the xylazine/ketamine induced α2-adrenergic receptor-mediated anesthesia test. The results confirmed that the two phosphodiesterase 4 inhibitors have different effects on emesis.

A further data set concerns male Wistar rats. As to the kind of experiment: Object recognition task (ORT), scopolamine induced memory deficit. The class given is in vivo. How it is done:
Memory acquisition processes are investigated using the object recognition test (ORT).
Twenty four 3-4 month old male Wistar rats (Charles River, Sulzfeld, Germany) were used for the study. All animals were housed individually in standard green line Tecniplast IVC cages on stardust bedding. The animals were housed on a reversed 12/12 h light/dark cycle (lights on from 07:00 pm to 07:00 am) and had free access to food and water. The rats were housed and tested in the same room. A radio, playing softly, provided background noise in the room. All testing was performed between 09:00 am and 06:00 pm.
Drugs were prepared daily, except as indicated otherwise. Roflumilast (Takeda, Konstanz, Germany, MW 403.21) was dissolved in 98% methylcellulose solution (0.5% methylcellulose) and 2% Tween 80. Roflumilast in doses of 0 (vehicle), 0.0001, 0.0003, 0.001, 0.003, 0.01 and 0.03 mg/kg was administered intraperitonally (ip, injection volume 1 ml/kg). […] All compounds were administered 30 min before T1.
The testing order of conditions was determined randomly. The experimenter was blind of testing protocol. A within design was used and all treatment conditions were balanced over rats. The ORT was performed as described elsewhere (Ennaceur and Delaceur, 1988, Behav Brain Res, Vol 31, pp 47-59; Akkerman et al; 2012, Behav Brain Res, Vol 232, pp 335-347). The apparatus consisted of a circular arena, 83 cm in diameter. The back half of the 40 cm high wall was made of grey PVC and the front was made of transparent PVC. Fluorescent red tubes and a light bulb provided a constant illumination of about 20 lux on the floor of the apparatus. The light intensity was equal in the different parts of the apparatus.
Two objects were placed in symmetrical positions at the mid-line between the gray and transparent halves of the arena, about ten centimeters away from wall. Four different sets of objects were available: 1) a standard 1 L brown transparent glass bottle (diameter 10 cm, height 22 cm) filled with water, 2) a metal cube (10.0×5.0×7.5 cm) with two holes (diameter 1.9 cm), 3) a cone consisting of a gray PVC base (maximal diameter 18 cm) with a collar on top made of brass (total height 16 cm), and 4) an aluminum cube with a tapering top (13.0×8.0×8.0 cm). Objects were presented to the animals in a balanced manner to avoid object or place biases. Rats were unable to displace the objects.
A test session comprised two trials, each with durations of 3 min. During the learning trial (T1) the apparatus contains two identical objects (object a1 and a2). Rats were always introduced into the apparatus with their nose towards the transparent wall segment (i.e. facing outwards to the front of the arena). Subsequently, rats were put back in its home cage for a 1 h interval. After the retention interval, rats were put back into the arena for the […] (T2). In T2, the two objects from T1 were replaced by one identical copy (a3) and a different novel object (b). The times spent in exploring each object during T1 and T2 were recorded manually on a personal computer.
Exploration was defined in the following manner: directing the nose to the object at a distance of no more than 2 cm and/or touching the object with the nose. Sitting on the object was not considered as exploratory behavior. In order to avoid the presence of olfactory cues, the objects were thoroughly cleaned with a 70% ethanol solution before each trial.
Prior to compound testing, the animals were handled for 5 min on 2 consecutive days and allowed to explore the ORT arena, also for 5 min. Subsequently, the animals were accustomed to the complete ORT testing procedure without receiving any injection.
The readout parameters of the object recognition task are the times that rats spent on exploring each object during T1 and T2. The exploration time (in seconds) of each object during T1 are presented as “a1” and “a2”.

Data set [2] concerns 60 to 80 years old subjects. The data set is described as follows: Bond-Lader Visual Analogue Scales (BL-VAS) in elderly subjects. The class given is in vivo, human. Conditions: 45 min after the low dose. The source says: Bond-Lader Visual Analogue Scales (BL-VAS): The BL-VAS (Bond A and Lader M, 1974; Br J Med Psycho) Vol 47, pp. 211-218) will be used in order to assess alertness, calmness, and contentedness. BL-VAS consists of 16 100 mm visual analogue scales anchored by antonyms (e.g. Alert-Drowsy, Lethargic-Energetic; etc) and be applied on testing Day 1 and 2 of each treatment period.
An interim analysis has been performed based on the data of 9 subjects of the Impaired Elderly group and 4 subjects of the Healthy Elderly group. For this purpose, cognitive battery test scores (VLT, SMT, Stroop task and BL-VAS) and concentrations of roflumilast and roflumilast-N-oxide in plasma have been analysed and summarized by dose over each scheduled sampling time using descriptive statistics.

Molecules are shown by their SMILES.

As to `O=C(Nc1c(Cl)cncc1Cl)c1ccc(OC(F)F)c(OCC2CC2)c1` [roflumilast, N-(3,5-dichloropyridin-4-yl)-3-cyclopropylmethoxy-4-difluoromethoxybenzamide], in data set [1], the emetic potential entry was “tendency towards emetic potential”. The “effect on memory performance (in words)” value in the data set on male Wistar rats (0.0001 mg/kg ip, scopolamine deficit) is listed as “no effect on memory performance”; in the data set on male Wistar rats (0.0003 mg/kg and 0.001 mg/kg, scopolamine deficit), “intermediate memory improvement”. Besides, the “effect on memory function (in words)” value was “fully restore memory function” in the data set on male Wistar rats (doses of 0.003 mg/kg and higher, scopolamine deficit); “fully restore spatial memory function” in the data set on male Wistar rats (single ip dose 0.003 mg/kg, scopolamine deficit); “increasingly less efficacy” in the data set on male Wistar rats (single ip doses 0.01, 0.03, 0.001 and 0.0003 mg/kg). Also, the d2 in the data set with male Wistar rats (rat, in vivo) turned out to be 0.34; in the data set with male Wistar rats (roflumilast 0.0001 mg/kg ip + scopolamine 0.1 mg/kg, 1 h retention), 0.05; in the data set on male Wistar rats (roflumilast 0.0003 mg/kg ip + scopolamine 0.1 mg/kg, 1 h retention), 0.16; in the data set with male Wistar rats (roflumilast 0.001 mg/kg ip + scopolamine 0.1 mg/kg, 1 h retention), 0.27; in the data set on male Wistar rats (roflumilast 0.003 mg/kg ip + scopolamine 0.1 mg/kg, 1 h retention), 0.43; with male Wistar rats (roflumilast 0.03 mg/kg ip + scopolamine 0.1 mg/kg, 1 h retention) it was 0.30. Further, in the data set on male Wistar rats (scopolamine 0.1 mg/kg + roflumilast 0.0001 mg/kg ip, rof + dpz study), the d2 was determined as 0.04. Besides, in data set [2], the “(subjective) alertness in comparison with placebo, BL-VAS scores” value is given as “significantly higher (subjective) alertness”.

For the origin of these results see patent US20150051246A1 (priority 2013, published 2015).
